Measurements: patent publication US7429612B2, “Indoline compound and medicinal use thereof” (Kyoto Pharmaceutical Industries, Ltd., priority 2002, dated 2008)
Values belong to the molecule of their own block, whether it stands above or below them.

Assays:
[1] = Plasma concentration after oral administration; format: in vivo, SD male rats; settings: 10 mg/kg oral, suspended in 5% gum arabic, HPLC
Method: A test compound (10 mg/kg) suspended in 5% gum arabic solution was forcibly administered orally to SD male rats weighing 200-250 g. At 0.5, 1, 3, 5 and 8 hours after administration, blood was taken without anesthesia and heparinized plasma was separated by conventional method. The concentration of the test compound in the plasma was determined by high performance liquid chromatography, the results of which are shown in Table 5.

[2] = system: THP-1 cell-derived macrophages; test: THP-1 cell-derived macrophage foam cell formation suppressing effect (cholesterol ester accumulation inhibitory effect); format: cell-based; settings: Homo sapiens, THP-1, 72 h, Concentration: 10^-6 M, acetyl LDL, 3 days culture, read-out: foam cell formation inhibitory rate (%)
Method: THP-1 (Dainippon Pharmaceutical Co., Ltd.) cells were passage cultured in RPMI-1640 medium supplemented with 10% fetal bovine serum (FBS), and the cells of passages 6-13 after purchase were used. The cells were suspended in FBS-containing RPMI-1640 medium to give a suspension having a concentration of 4×10^5 cells/mL. The cell suspension was inoculated to a 12 well microplate by 1 mL, and treated with phorbol 12-myristate 13-acetate (PMA, 200 nM) as a differentiation inducing agent into macrophage. Then acetyl LDL 400 μg/mL prepared separately from plasma-derived LDL of genetically hyperlipidemia rabbit (KHC rabbit, Japan Laboratory Animals, Inc.) was added. In addition, a test compound dissolved in DMSO and diluted with FBS-containing RPMI-1640 medium or a control solvent was added. After culture in a carbon dioxide incubator for 3 days, the cells were washed with phosphate buffered physiological saline (pH 7.0), and the lipid was extracted with n-hexane/isopropanol (3:2). The cells were dissolved in 1M-NaOH and the protein amount was measured. The free cholesterol and cholesterol ester in a lipid extraction sample was measured by the method of Kunitomo et al. (1983). The cholesterol ester was compared between the control cell and the test compound-treated cells, and the cholesterol ester accumulation inhibitory rate of the test compound was calculated.

hepatic ACAT = test: Hepatic ACAT inhibitory activity (rabbit liver microsomes, [1-14C]-oleoyl CoA); format: biochemical, Japanese white rabbits; settings: Concentration: 10^-6 M; inhibition of cholesteryl oleate production vs control
Method: A high cholesterol feed [a feed added with cholesterol (1%), Clea Japan, Inc.] was fed to male Japanese white rabbits weighing 2-2.5 kg at 100 g per day and the rabbits were bred for 4 weeks. The rabbits were killed by bleeding under anesthesia and liver was removed. The liver was homogenated, and the homogenate was centrifuged at 4° C. and 10,000 rpm for 15 min. The obtained supernatant was further centrifuged at 4° C. and 41,000 rpm for 60 minutes to give microsomal fractions. The microsomal suspension as an enzyme sample, dimethyl sulfoxide (DMSO, […]) or a test compound dissolved in DMSO (test compound solution 3 μl), and reaction substrate [1-^14C]-oleoyl CoA were added to 0.15 M phosphate buffer to the total amount of 300 μl. After incubation at 37° C. for 20 minutes, a chloroform-methanol mixture was added to stop the reaction. Water was added thereto and mixed, and the chloroform layer was separated. The solvent was evaporated to dryness, and the residue was redissolved in n-hexane. The mixture was subjected to thin layer chromatography using a silica gel plate. The spots of cholesteryl oleate on the silica gel plate were scraped, and quantitatively assayed on lo a liquid scintillation counter.

[3] = system: cholesterol secretion from the liver; test: Mouse hepatic lipid secretion inhibitory effect (Triton WR-1339 method); format: in vivo, Slc:ICR mice; settings: 10 mg/kg/day oral, plasma TC change in 3 hr after Triton WR-1339, read-out: Cholesterol secretion inhibitory rate (%)
Method: About 5 week-old male Slc:ICR mice (Japan SLC) were fed only in the daytime (9:00-18:00) and preliminarily bred for one week. During this period, free access to tap water was allowed during the nighttime, too. The mice were divided into a control group and a test compound group at 6 mice per group, such that the average and standard deviation of the body weight became almost the same. The blood (ca 80 μL) was drawn from the orbital venous plexus using a glass capillary under anesthesia, and at 30 min after blood drawing, a test compound suspended in 5% gum arabic solution in advance was orally administered at a dose of 10 mg/kg. At 30 min after the administration, Triton WR-1339 60 mg/mL solution prepared with physiological saline in advance was administered to the tail vein at a dose of 5 mL/kg. At 3 hr after the Triton WR-1339 administration, the blood was drawn again from the orbital venous plexus. Plasma was separated from the drawn blood, and plasma TC was measured using a commercially available measurement kit (Wako Pure Chemical Industries, Ltd.). Changes in blood-concentration in 3 hr after Triton WR-1339 administration were calculated and taken as the rate of cholesterol secretion from the liver. The rate of secretion was compared between the control group and the test compound group and the secretion inhibitory rate of the test compound was calculated.

LDL = test: In vitro LDL peroxidation inhibitory effect (copper sulfate, thiobarbituric acid method); format: biochemical, KHC rabbits; settings: Concentration: 10^-5 M; malondialdehyde production, 5 μM copper sulfate, 37° C., 1 hr
Method: The blood was drawn from the auricular artery of KHC rabbits weighing about 3 kg and LDL was separated by a conventional method. A solution (5 μL) of test compound in DMSO or DMSO was added (final concentration 10^−5 M) to LDL suspension (0.5 mg protein/mL, 0.5 mL), aqueous copper sulfate solution (5 μL, final concentration 5 μM) was added, and the mixture was incubated at 37° C. for 1 hr. After the completion of the incubation, EDTA·2Na solution (5 μL, final concentration 1 mM) was added, and lipoperoxide concentration in the-sample was measured by the Yagi's method. To be specific, lipoperoxide in the sample was color developed by the thiobarbituric acid method, measured as malondialdehyde and the activity of the test compound was shown by malondialdehyde production inhibitory rate (%) [to what level the production of malondialdehyde was inhibited as compared to control].

Maximum concentration in blood [1]: 1.98 µg/mL
SMILES: CCCCCN1CCc2c(C)c(NS(C)(=O)=O)c(C)c(NC(=O)C(C)(C)C)c21 [Example 11, N-(5-methanesulfonylamino-4,6-dimethyl-1-pentylindolin-7-yl)-2,2-dimethylpropanamide]

Maximum concentration in blood [1]: 3.05 µg/mL
SMILES: CCCCN1CCc2c(C)c(NS(C)(=O)=O)c(C)c(NC(=O)C(C)(C)C)c21 [Example 12, N-(1-butyl-5-methanesulfonylamino-4,6-dimethylindolin-7-yl)-2,2-dimethylpropanamide]

Maximum concentration in blood [1]: 2.30 µg/mL
SMILES: CCCN1CCc2c(C)c(NS(C)(=O)=O)c(C)c(NC(=O)C(C)(C)C)c21 [Example 14, N-(5-methanesulfonylamino-4,6-dimethyl-1-propylindolin-7-yl)-2,2-dimethylpropanamide]

Maximum concentration in blood [1]: 1.12 µg/mL
SMILES: CCCCCCN1CCc2c(C)c(NS(C)(=O)=O)c(C)c(NC(=O)C(C)(C)C)c21 [Example 22, N-(1-hexyl-5-methanesulfonylamino-4,6-dimethylindolin-7-yl)-2,2-dimethylpropanamide]

More lines, now with the values behind:

SMILES: CCCCCN1CCc2c(C)c(NS(N)(=O)=O)c(C)c(NC(=O)C(C)(C)C)c21.Cl [Example 18, N-(4,6-dimethyl-1-pentyl-5-sulfamoylaminoindolin-7-yl)-2,2-dimethylpropanamide hydrochloride]
inhibition at 1 µM [2]: 93%
Hepatic ACAT inhibitory ratio (%) (hepatic ACAT): 96.7%
inhibition in vivo at 10 mg/kg [3]: 41.4%

SMILES: Cc1c2c(c(NC(=O)C(C)(C)C)c(C)c1NS(C)(=O)=O)N(CC(C)C)CC2 [Example 15, N-[5-methanesulfonylamino-4,6-dimethyl-1-(2-methylpropyl)indolin-7-yl]-2,2-dimethylpropanamide]
Maximum concentration in blood [1]: 1.68 µg/mL

SMILES: CCCN1CCc2c(C)c(NS(N)(=O)=O)c(C)c(NC(=O)C(C)(C)C)c21.Cl [Example 17, N-(4,6-dimethyl-1-propyl-5-sulfamoylaminoindolin-7-yl)-2,2-dimethylpropanamide hydrochloride]
Hepatic ACAT inhibitory ratio (%) (hepatic ACAT): 86.4%
inhibition in vivo at 10 mg/kg [3]: 44.4%

SMILES: Cc1c2c(c(NC(=O)C(C)(C)C)c(C)c1NS(C)(=O)=O)N(C1CCCC1)CC2 [Example 41, N-(1-cyclopentyl-5-methanesulfonylamino-4,6-dimethylindolin-7-yl)-2,2-dimethylpropanamide]
Maximum concentration in blood [1]: 2.03 µg/mL
inhibition at 1 µM [2]: 76.5%
Hepatic ACAT inhibitory ratio (%) (hepatic ACAT): 97.3%
inhibition in vivo at 10 mg/kg [3]: 58.5%

SMILES: CCCN1c2c(c(C)c(NS(N)(=O)=O)c(C)c2NC(=O)C(C)(C)C)CC1C.Cl (stereo not shown) [Example 53, N-(2,4,6-trimethyl-1-propyl-5-sulfamoylaminoindolin-7-yl)-2,2-dimethylpropanamide hydrochloride]
Maximum concentration in blood [1]: 1.31 µg/mL
inhibition at 1 µM [2]: 70%

SMILES: CC(C)(Sc1cc(C(C)(C)C)c(O)c(C(C)(C)C)c1)Sc1cc(C(C)(C)C)c(O)c(C(C)(C)C)c1 [Probucol]
LDL peroxidation inhibitory ratio (%) (LDL): 33.8%

SMILES: CCN1CCc2c(C)c(NS(C)(=O)=O)c(C)c(NC(=O)C(C)(C)C)c21 [Example 16, N-(1-ethyl-5-methanesulfonylamino-4,6-dimethylindolin-7-yl)-2,2-dimethylpropanamide]
Maximum concentration in blood [1]: 2.90 µg/mL

SMILES: Cc1c2c(c(NC(=O)C(C)(C)C)c(C)c1NS(C)(=O)=O)N(CCC(C)C)CC2 [Example 13, N-[5-methanesulfonylamino-4,6-dimethyl-1-(3-methylbutyl)indolin-7-yl]-2,2-dimethylpropanamide]
Maximum concentration in blood [1]: 1.36 µg/mL
